Measured values taken from patent US4193997A, “Thieno[2,3-c] and [3,2-c]pyridines, process for their preparation and therapeutic applications thereof” (Parcor, priority 1977, dated 1980).

Legend:
Red blood cells [1] = test: Anti-sludge in vitro, "curative" procedure (protamine sulfate agglomeration of red blood cells); assay type: cell-based, rats; conditions: 25 μg; for percent aggregates, size of agglomerates 5: reference tests 8 or 9; for percent aggregates, size of agglomerates 4: reference tests 11; for percent aggregates, size of agglomerates 3: reference tests 15 or 16; for percent aggregates, size of agglomerates 2: reference tests 19; for percent aggregates, size of agglomerates 1: reference tests 33 (n°3, 4, 6) or 30 (n°11, 12, 17)
Experimental: (§1) Red blood cells of rats are washed three times and diluted to 1/250 concentration in physiological saline. In each of 5 tubes are placed 0.6 ml of this suspension and 0.2 ml physiological saline. Into each tube is then added, respectively, an amount of 0, 25, 50, 100 and 200 μg of the test derivative contained in 0.2 ml of solution. After incubation for one hour at 37° C., 0.2 ml of a solution containing 125 μg/ml protamine sulfate is added thereto, and the resulting material is further incubated for 0.5 hour at 37° C. The red blood cells of each tube are then examined with a Mallasez cell, and the percent free red blood cells (RBC) and the percent agglomerates formed by 2, 3, 4, 5 . . . RBC are noted.
The test was repeated according to a "curative" procedure. The red blood cells were first contacted with the protamine sulfate and, after incubation for 0.5 hour, 0.2 ml containing 25 μg of the test derivative were added thereto, after which the material was further incubated for one hour at 37° C.

mice = test: Antalgic action, acetic acid method according to Koster, Anderson & de Beer; assay type: in vivo; conditions: 100 mg/kg oral, 30 minutes prior to i.p. acetic acid
Text: (b) Acetic acid method, according to Koster, Anderson & de Beer (Fed. Proced., 18, 1959, 412, 1, 626)
Intraperitoneal injection of a dilute acetic acid solution induces, in mice, characteristic writhing movements which are repeated due to the effect of pain.

Red blood cells [2] = test: Anti-sludge in vitro, "preventive" treatment (protamine sulfate agglomeration of red blood cells); assay type: cell-based, rats; conditions: for percent agglomerates formed by 5 RBC: controls 6 or 8; for percent agglomerates formed by 4 RBC: controls 9 or 8; for percent agglomerates formed by 3 RBC: controls 13 or 14; for percent agglomerates formed by 2 RBC: controls 17 or 16; for percent free red blood cells (size 1): controls 32 (n°3, 4, 6) or 30 (n°11, 12, 17)
Experimental: as §1

[3] = test system: collagen-induced blood-platelet aggregation; test: Collagen-induced blood-platelet aggregation after oral treatment of rats; assay type: in vivo, Wistar rats; conditions: Rattus norvegicus, 100 mg/kg oral, 3 hrs after treatment, collagen (bovine tendon extract), read-out: Percent inhibition of blood-platelet aggregation, Collagen
Experimental: (§2) Blood is taken from the jugular vein of Wistar rats. From this citrated blood, and after centrifugation, a plasma containing 600,000±20,000 blood-platelets per mm 3 is reconstituted, which plasma is used in all aggregation determinations.
(§3) 0.4 ml plasma is placed in a siliconized tube provided with a magnet bar which is also siliconized. The tube is introduced into an aggregometer connected to an apparatus which records the optical density variations. When light transmission reaches a stable value, 0.5 ml of a solution containing 10 μM A.D.P. (adenosine diphosphate) is introduced into the tube.
The A.D.P. solution is substituted with a collagen solution (bovine tendon extract).
(§4) Different groups of 20 rats each are used. Each group is orally administered a test derivative, at a dosage of 100 mg/kg. The results obtained during both tests are reported in following Table I which indicates the percent inhibition of blood-platelet aggregation obtained with respect to the reference group, 3 hrs after treatment.

[4] = test system: carrageenin-induced edema; test: Localized carrageenin-induced edema method; assay type: in vivo; conditions: rats, 100 mg/kg oral one hour before, with, and 1 and 2.5 hours after carrageenin
Experimental: 0.1 ml of a 1% carrageenin solution is injected at time O in the metatarsal flexor muscles of the right hind limb of rats.
The animals of the treated group are additionally orally administered 100 mg/kg of the test derivative, respectively one hour prior to, and then simultaneously with the phlogogenic agent, and then one hour and 2.5 hours thereafter. The determinations effected with a ROCH micrometer at times 0, 1 hr, 2 hrs, 3 hrs and 5 hrs after carrageenin administration make it possible to determine the percent anti-inflammatory activity, as a function of time.

mouse = test: Antalgic action, mechanical stimulation method according to Haffner; assay type: in vivo; conditions: 100 mg/kg oral
Experimental: (a) Mechanical stimulation method according to Haffner (Deutsch. Wish., 1959, 55, 731-733). This method comprises placing a pressure forceps at the base of the tail of a mouse and recording the number of bites self-inflicted by the animal in its endeavour to remove the forceps. The decrease of the number of bites prior and subsequent to oral administration of the test compound at a dosage of 100 mg/kg provides a measure of the antalgic activity of the derivatives of this invention.

[5] = test system: ovalbumin-induced systemic edema; test: Ovalbumin-induced systemic edema method; assay type: in vivo; conditions: rats, 100 mg/kg oral one hour before and with ovalbumin
Experimental: Rats are administered a simultaneous intraperitoneal injection of 1 ml ovalbumin and 0.5 ml of a 1% aqueous Evans Blue solution. The animals of the treated group are additionally orally administered 100 mg/kg of the test derivative, one hour prior to ovalbumin administration and then simultaneously with said ovalbumin administration. The intensity of the phenomenon thus induced is rated according to a scale from 1 to 5, according to the progress of the inflammatory syndrome. The determinations are effected after 2 hours and after 3 hours. Thus are determined the mean intensity of the edema and the percent decrease of the edema reaction.

[6] = test system: A.D.P.-induced blood-platelet aggregation; test: A.D.P.-induced blood-platelet aggregation after oral treatment of rats; assay type: in vivo, Wistar rats; conditions: Rattus norvegicus, 100 mg/kg oral, 3 hrs after treatment, 10 μM A.D.P. solution, read-out: Percent inhibition of blood-platelet aggregation, A.D.P.
Experimental: as §2, §3
Blood-platelet aggregation then induces an increase of light transmission, followed by a decrease subsequent to the disaggregation stage.
The maximal optical density variation thus determined characterizes the extent of the aggregation.
as §4

| Compound | percent aggregates, size of agglomerates 4 (Red blood cells [1]) [%] | percent aggregates, size of agglomerates 3 (Red blood cells [1]) [%] | percent aggregates, size of agglomerates 2 (Red blood cells [1]) [%] | percent aggregates, size of agglomerates 1 (Red blood cells [1]) [%] | percent antalgia (mice) [%] | percent agglomerates formed by 5 RBC (Red blood cells [2]; 25 μg per tube) [%] | percent agglomerates formed by 4 RBC (Red blood cells [2]; 25 μg per tube) [%] | percent agglomerates formed by 3 RBC (Red blood cells [2]; 25 μg per tube) [%] | percent agglomerates formed by 2 RBC (Red blood cells [2]; 25 μg per tube) [%] | percent free red blood cells (size 1) (Red blood cells [2]; 25 μg per tube) [%] | percent agglomerates formed by 5 RBC (Red blood cells [2]; 50 μg per tube) [%] | percent agglomerates formed by 4 RBC (Red blood cells [2]; 50 μg per tube) [%] | percent agglomerates formed by 3 RBC (Red blood cells [2]; 50 μg per tube) [%] | percent agglomerates formed by 2 RBC (Red blood cells [2]; 50 μg per tube) [%] | percent free red blood cells (size 1) (Red blood cells [2]; 50 μg per tube) [%] | percent agglomerates formed by 4 RBC (Red blood cells [2]; 100 μg per tube) [%] | percent agglomerates formed by 3 RBC (Red blood cells [2]; 100 μg per tube) [%] | percent agglomerates formed by 2 RBC (Red blood cells [2]; 100 μg per tube) [%] | percent free red blood cells (size 1) (Red blood cells [2]; 100 μg per tube) [%] | percent agglomerates formed by 4 RBC (Red blood cells [2]; 200 μg per tube) [%] | also measured |
| --- | --- | --- | --- | --- | --- | --- | --- | --- | --- | --- | --- | --- | --- | --- | --- | --- | --- | --- | --- | --- | --- |
| CC(=O)N1CCc2ccsc2C1=O [Derivative n°11, 6-Acetyl-7-oxo-4,5,6,7-tetrahydro-thieno[2,3-c]-pyridine] | 2 | 4 | 15 | 78 | 71 | 2 | 2 | 14 | 22 | 60 | 1 | 2 | 10 | 22 | 65 | 1 | 5 | 13 | 81 | 1 | percent aggregates, size of agglomerates 5 (Red blood cells [1]): 1%; percent agglomerates formed by 3 RBC (Red blood cells [2]; 200 μg per tube): 2%; percent agglomerates formed by 2 RBC (Red blood cells [2]; 200 μg per tube): 14%; percent free red blood cells (size 1) (Red blood cells [2]; 200 μg per tube): 83%; inhibition at 100 mg/kg [3]: 92.8%; Percent anti-inflammatory activity after 1 hour [4]: 41%; Percent anti-inflammatory activity after 2 hours [4]: 50%; Percent anti-inflammatory activity After 3 hours [4]: 58%; mean percent antalgia after 30 min. (mouse): 65%; mean percent antalgia after 1 hr (mouse): 61%; mean percent antalgia after 2 hrs (mouse): 57%; mean percent antalgia after 3 hrs (mouse): 50%; Percent decrease of the edema reaction After 2 hours [5]: 45%; Percent decrease of the edema reaction After 3 hours [5]: 55%; inhibition at 100 mg/kg [6]: 63% |
| O=C1NCCc2ccsc21 [Derivative n°12, 7-Oxo-4,5,6,7-tetrahydro-thieno[2,3-c]pyridine] | 1 | 3 | 14 | 82 | 77 | 1 | 2 | 15 | 21 | 61 | 2 | 2 | 12 | 20 | 64 | 2 | 2 | 18 | 78 | 1 | percent agglomerates formed by 3 RBC (Red blood cells [2]; 200 μg per tube): 1%; percent agglomerates formed by 2 RBC (Red blood cells [2]; 200 μg per tube): 9%; percent free red blood cells (size 1) (Red blood cells [2]; 200 μg per tube): 89%; inhibition at 100 mg/kg [3]: 90.6%; Percent anti-inflammatory activity after 1 hour [4]: 42%; Percent anti-inflammatory activity after 2 hours [4]: 54%; Percent anti-inflammatory activity After 3 hours [4]: 61%; mean percent antalgia after 30 min. (mouse): 81%; mean percent antalgia after 1 hr (mouse): 78%; mean percent antalgia after 2 hrs (mouse): 73%; mean percent antalgia after 3 hrs (mouse): 67%; Percent decrease of the edema reaction After 2 hours [5]: 53%; Percent decrease of the edema reaction After 3 hours [5]: 64%; inhibition at 100 mg/kg [6]: 62.7% |
| CC(=O)N1CC(c2ccccc2)c2ccsc2C1=O (stereo not drawn) [Derivative n°17, 4-Phenyl-6-acetyl-7-oxo-4,5,6,7-tetrahydro-thieno[2,3-c]-pyridine] | 1 | 2 | 16 | 80 | 68 | 3 | 3 | 13 | 23 | 58 | 1 | 2 | 4 | 28 | 65 | 1 | 4 | 14 | 80 | 1 | percent aggregates, size of agglomerates 5 (Red blood cells [1]): 1%; percent agglomerates formed by 5 RBC (Red blood cells [2]; 100 μg per tube): 1%; percent agglomerates formed by 3 RBC (Red blood cells [2]; 200 μg per tube): 2%; percent agglomerates formed by 2 RBC (Red blood cells [2]; 200 μg per tube): 9%; percent free red blood cells (size 1) (Red blood cells [2]; 200 μg per tube): 88%; inhibition at 100 mg/kg [3]: 91.7%; Percent anti-inflammatory activity after 1 hour [4]: 37%; Percent anti-inflammatory activity after 2 hours [4]: 49%; Percent anti-inflammatory activity After 3 hours [4]: 54%; mean percent antalgia after 30 min. (mouse): 70%; mean percent antalgia after 1 hr (mouse): 65%; mean percent antalgia after 2 hrs (mouse): 60%; mean percent antalgia after 3 hrs (mouse): 55%; Percent decrease of the edema reaction After 2 hours [5]: 46%; Percent decrease of the edema reaction After 3 hours [5]: 58%; inhibition at 100 mg/kg [6]: 61.3% |
